Results published in patent US5677282A (Proscript, Inc., priority 1995, dated 1997).
Where a SMILES comes first, the peptide text is derived from it. [ ]: non-standard residue; d: D form. The star is where a group is joined. Phg = N[CH](C(=O)O)c1ccccc1; Cbz = O=C(OCc1ccccc1)*; X1 = S=c1[nH]nc(N*)s1; Bn = c1ccc(C*)cc1

Legend:
Assay type in all cases: biochemical
92 kD gelatinase = 92 kD gelatinase (Homo sapiens, UniProt P14780); assay: Assay of 92 KD gelatinase inhibition activity; details: 92KD gelatinase 25 pM, H-150 buffer pH 7.4; read-out: Ki(app)
92 kD gelatinase, sequence (P14780 107-707): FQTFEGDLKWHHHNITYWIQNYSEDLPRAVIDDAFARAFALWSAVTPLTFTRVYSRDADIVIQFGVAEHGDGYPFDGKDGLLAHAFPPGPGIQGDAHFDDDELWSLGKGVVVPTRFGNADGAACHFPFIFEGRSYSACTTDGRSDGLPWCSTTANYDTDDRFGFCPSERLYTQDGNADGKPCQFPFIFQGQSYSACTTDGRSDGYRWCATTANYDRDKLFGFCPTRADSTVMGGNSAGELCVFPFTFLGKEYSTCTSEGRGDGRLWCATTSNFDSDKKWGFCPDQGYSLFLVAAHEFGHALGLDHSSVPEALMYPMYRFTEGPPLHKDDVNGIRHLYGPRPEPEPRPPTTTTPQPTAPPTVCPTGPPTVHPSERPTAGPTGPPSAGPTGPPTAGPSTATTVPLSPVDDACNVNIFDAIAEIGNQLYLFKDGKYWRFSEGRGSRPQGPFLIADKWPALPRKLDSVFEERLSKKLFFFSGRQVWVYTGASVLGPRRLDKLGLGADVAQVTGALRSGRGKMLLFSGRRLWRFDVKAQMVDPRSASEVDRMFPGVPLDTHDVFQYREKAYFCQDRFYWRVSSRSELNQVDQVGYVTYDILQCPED
Protocol: H-150 buffer, pH 7.4, was prepared by CaCl2 H2 O (1.47 grams), NaCl (8.77 grams) and N-[2-hydroxyethyl]piperazine-N'-[2-ethanesulfonic acid](23.83 grams) to distilled and deionized water and then bring the final volume of the solution to 1 liter. A reaction mixture having a final volume of 500 μL was prepared with H-150 buffer, 200 μgrams of Pro-92KD gelatinase (Strongin et al., J. Biol. Chem., 268:14033 (1993); Goldberg, et al., J. Biol. Chem., 267:4583 (1992); Okada et al., J. Biol. Chem. 267:21712 (1992)), p-aminophenyl mercuric acetate (Sigma Chemical Co., St. Louis, Mo.) (1 mM) and Brij (dodexylpoly(oxyethyleneglycolether))(0,008% w/v). The reaction mixture wsa then incubated for 24 hours at 37° C.
The reaction mixture was applied to a NAP-5 column (G-25 SEPHADEX™, Pharmacia). Fractions containing 72KD gelatinase were identified using 12% polyacrylamide gel electrophoresis and concentrated to about 100-200 μliters by centrifigation (5000 g, 1 hour).
(§1) A solution containing H-150 buffer (2.0 mL), 92KD gelatinase (25 pM) and ethylphenolpoly(ethylene-glycolether)n (Boerhringer Mannheim) (4.0 μM) was prepared in a stirred cuvette. Coumarin peptide substrate (4 μL of a 5 mM solution in dimethyl sulfoxide) was added to the reaction mixture. The rate of hydrolysis was determined for about 100-200 seconds by measuring the fluorescence of the reaction at ex328 nanometers and […] using a Hitachi F-2000 Fluorescence Spectrophotometer.
(§2) 2 μL of a 10 mM inhibitor stock solution (in dimethyl sulfoxide) is added and the reduction in the rate of hydrolysis is determined. Additional 2 μL aliquots of the stock inhibitor solution is added until a 30% to 70% inhibition is observed. Ki is calculated on the assumption of simple competitive inhibition and that the substrate concentration is much less than Km.

72 kD gelatinase = molecular target: T1, 72 kD gelatinase (Homo sapiens, UniProt P08253); assay: Assay of 72 KD gelatinase inhibition activity; details: 72KD gelatinase 180 pM, H-150 buffer pH 7.4; read-out: Ki(app)
T1 sequence (P08253 110-660): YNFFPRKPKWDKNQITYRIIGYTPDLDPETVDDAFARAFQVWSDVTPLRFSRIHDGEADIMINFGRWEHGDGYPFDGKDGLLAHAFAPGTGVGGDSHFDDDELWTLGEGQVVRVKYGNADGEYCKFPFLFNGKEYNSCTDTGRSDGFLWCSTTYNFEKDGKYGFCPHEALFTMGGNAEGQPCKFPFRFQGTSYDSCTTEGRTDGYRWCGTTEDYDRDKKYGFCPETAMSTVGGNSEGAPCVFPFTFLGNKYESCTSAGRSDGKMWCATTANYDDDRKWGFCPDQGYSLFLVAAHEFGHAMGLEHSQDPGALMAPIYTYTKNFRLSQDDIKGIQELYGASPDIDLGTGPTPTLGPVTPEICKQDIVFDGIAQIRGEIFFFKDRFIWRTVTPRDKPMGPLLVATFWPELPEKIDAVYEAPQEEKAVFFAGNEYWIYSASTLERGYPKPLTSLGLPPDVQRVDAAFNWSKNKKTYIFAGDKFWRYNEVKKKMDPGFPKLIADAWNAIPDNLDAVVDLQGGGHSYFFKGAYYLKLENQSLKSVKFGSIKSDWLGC
Protocol: H-150 buffer, pH 7.4, was prepared by CaCl2 H2O (1.47 grams), NaCl (8.77 grams) and N-[2 -hydroxyethyl]piperazine-N'-[2-ethanesulfonic acid](23.83 grams) to distilled and deionized water and then bring the final volume of the solution to 1 liter. An reaction mixture having a final volume of 250 μL was prepared with H-150 buffer, 40 μgrams of Pro-72KD gelatinase (Strongin, et al., J. Biol. Chem. 268:14033 (1993); Goldberg, et al., J. Biol. Chem., 267:4583 (1992); Kleiner, et al., Biochemistry 32:1583 (1993)) and p-aminophenyl mercuric acetate (Sigma Chemical Co., St. Louis, Mo.) (1 mM). The reaction mixture was then incubated for 3 hours at 25° C.
The reaction mixture was applied to a NAP-5 column (G-25 SEPHADEX™, Pharmacia). Fractions containing […] were identified using 12% SDS polyacrylamide gel electrphoresis and concentrated to about 100-200 μliters by centrifigation (5000 g, 15 minutes).
as §1, with “mL), 72KD” for “mL), 92KD”, “gelatinase (180” for “gelatinase (25”, “Mannheim) (1.3” for “Mannheim) (4.0”, “substrate (2” for “substrate (4”, “a 1” for “a 5”
as §2

stromelysin = stromelysin (Homo sapiens, UniProt P08254); assay: Assay of stromelysin inhibition activity (fluorogenic coumarin peptide substrate); details: trypsin-activated stromelysin 2 nM, H-150 buffer pH 7.4, room temperature; read-out: Ki(app)
stromelysin, sequence (P08254 100-477): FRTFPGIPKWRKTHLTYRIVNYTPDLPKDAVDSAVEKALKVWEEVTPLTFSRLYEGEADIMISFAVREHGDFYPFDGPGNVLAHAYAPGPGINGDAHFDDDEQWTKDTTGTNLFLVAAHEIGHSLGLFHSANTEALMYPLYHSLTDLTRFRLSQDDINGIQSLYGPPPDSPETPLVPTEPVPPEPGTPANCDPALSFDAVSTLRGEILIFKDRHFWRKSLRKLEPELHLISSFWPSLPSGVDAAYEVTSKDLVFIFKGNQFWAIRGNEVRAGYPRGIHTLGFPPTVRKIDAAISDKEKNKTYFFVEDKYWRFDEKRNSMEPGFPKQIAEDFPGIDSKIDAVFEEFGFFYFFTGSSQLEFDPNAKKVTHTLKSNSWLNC
Protocol: Stromelysin was first activated with trypsin. This was done by preparing a reaction mixture in H-150 (H-150 consists of 10 mM CaCl2, 150 mM NaCl and 100 mM HEPES at pH 7.4) containing a final concentration of 25 μg/mL trypsin and 2.2 μM of stromelysin (Marcy et al., Biochemistry,30:6476 (1991); Koklitis et al., Biochem. J., 376:217 (1991). The reaction was incubated for 30 minutes at 37° C. and then quenched by adding trypsin inhibitor agarose to the reaction mixture at a 20 fold excess with respect to trypsin.
The reaction mixture was centrifuged at 14,000 rpm (16,000 ×g) for 30 minutes using an Eppendorf Centrifuge 5415C. The supernant, which contains activated stromelysin, was concentrated with a Centricon 10 (5000 g, 1 hour). A sample was analyzed by Bradford total protein assay and 12% SDS polyacrylamide gel electrophoresis.
All steps of the stromelysin inhibition assay were performed at room temperature. Assay solutions were prepared for each inhibitor tested. Activated stromelysin was added to a stirred covelte to a final concentration of 2 nM in 2 mL of H-150 buffer. 4 μL 5 mM coumarin peptide substrate was dissolved in DMSO and the initial rate of hydrolysis was measured for 100-200 seconds.
Substrate hydrolysis was assessed by fluorescence using a slit width of 10:10, excitation at 328 nm and emission at 393 nm. Ki was calculated based on the assumption of simple competitive inhibition and a substrate concentration much less than Km. 2 μL of 10 mM inhibitor in DMSO was added and the reduction in hydrolysis rate measured. The addition of 2 μL of inhibitor was continued until a 30-70% inhibition was observed.

[1] = molecular target: human neutrophil collagenase (Homo sapiens, UniProt P22894); assay: Assay of human neutrophil collagenase inhibition activity; details: human neutrophil collagenase 2 nM, H-150 buffer pH 7.4; read-out: Ki(app)
human neutrophil collagenase, sequence (P22894 101-467): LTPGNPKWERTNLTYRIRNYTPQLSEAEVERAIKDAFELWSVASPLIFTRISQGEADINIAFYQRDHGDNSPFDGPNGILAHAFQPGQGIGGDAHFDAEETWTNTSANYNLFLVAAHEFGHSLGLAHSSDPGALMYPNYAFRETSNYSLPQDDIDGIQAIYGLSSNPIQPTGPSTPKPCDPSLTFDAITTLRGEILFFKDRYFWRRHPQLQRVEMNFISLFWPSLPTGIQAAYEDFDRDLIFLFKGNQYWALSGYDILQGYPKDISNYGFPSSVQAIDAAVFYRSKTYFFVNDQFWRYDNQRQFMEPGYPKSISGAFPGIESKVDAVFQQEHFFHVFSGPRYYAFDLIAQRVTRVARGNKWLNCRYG
Protocol: H-150 buffer, pH 7.4, was prepared by adding CaCl2 H2 O (1.47 grams), NaCl (8.77 grams) and N-[2-hydroxyethyl]piperazine-N'-[2-ethanesulfonic acid] (23.83 grams) to distilled and deionized water and then bringing the final volume of the solution to 1 liter.
A reaction mixture with a final volume of 2.0 mL was prepared from H-150 buffer, human neutrophil collagenase (Schnierer, et al., Blochem. Biophys. Res. Comm., 191:319 (1993); Knight et al., Federation of Europena Biochemical Societies 296:263 (1992)) (2 nM). Coumarin peptide substrate (4 μL of a 5 mM solution in dimethyl sulfoxide) was added to the reaction mixture. The rate of hydrolysis was determined for about 100-200 seconds by measuring the fluorescence of the reaction at ex328 nanometers and […] using a Hitachi F-2000 Fluorescence Spectrophotometer.
as §2

| SMILES | Ki (92 kD gelatinase) [nM] | Ki (72 kD gelatinase) [nM] | Ki (stromelysin) [nM] | Ki [1] [nM] |
| --- | --- | --- | --- | --- |
| O=C(N[C@@H](Cc1ccc(OCc2ccccc2)cc1)C(=O)N[C@@H](Cc1ccccc1)C(=O)Nc1n[nH]c(=S)s1)OCc1ccccc1 | 0.15 | – | – | – |
| CSCC[C@H](NC(=O)[C@H](Cc1ccccc1)NC(=O)OCc1ccccc1)C(=O)N[C@@H](Cc1ccc(OCc2ccccc2)cc1)C(=O)N[C@H](C(=O)Nc1n[nH]c(=S)s1)c1ccccc1 | – | 0.2 | – | – |
| O=C(N[C@H](C(=O)Nc1n[nH]c(=S)s1)c1ccccc1)[C@H](Cc1ccc(OCc2ccccc2)cc1)NC(=O)[C@@H]1CCCN1C(=O)OCc1ccccc1 | 0.76 | – | – | – |
| CC(C)[C@H](NC(=O)[C@H](Cc1ccccc1)NC(=O)c1ccc(NS(=O)(=O)c2ccc(C(C)(C)C)cc2)cc1)C(=O)Nc1n[nH]c(=S)s1 [5-(N-(4-(4-t-Butylphenylsulfonylamino)benzoyl)-phenylalanyl-valylamino)-1,3,4-thiadiazole-2-thione] | 0.31 | 0.68 | 44 | 1.04 |
| CC(C)[C@H](NC(=O)[C@H](Cc1ccccc1)NC(=O)c1ccc(Oc2ccccc2)cc1)C(=O)Nc1n[nH]c(=S)s1 [5-(N-(4-phenoxy)benzoyl-phenylalanyl-valylamino)-1,3,4-thiadiazole-2-thione] | – | – | 101 | 1.67 |
| CC(C)[C@H](NC(=O)[C@H](Cc1ccccc1)NC(=O)c1ccc(-c2ccccc2)cc1)C(=O)Nc1n[nH]c(=S)s1 [5-(N-(4-phenylbenzoyl)phenylalanyl-valylamino)-1,3,4-thiadiazole-2-thione] | 0.31 | 0.8 | 82 | 2.6 |
| O=C(N[C@@H](Cc1ccccc1)C(=O)Nc1n[nH]c(=S)s1)OCC1c2ccccc2-c2ccccc21 [5-(N-(9-fluorenylmethoxycarbonyl)-phenylalanylamino)-1,3,4-thiadiazole-2-thione] | 0.23 | – | – | – |
| CC(C)C[C@H](NC(=O)[C@H](Cc1ccc(OCc2ccccc2)cc1)NC(=O)OCc1ccccc1)C(=O)Nc1n[nH]c(=S)s1 [5-(N-benzyloxycarbonyl-((O-benzyl)tyrosyl)-leucylamino)-1,3,4-thiadiazole-2-thione] | 0.29 | 0.24 | 96 | 1.83 |
| O=C(CNC(=O)[C@H](Cc1ccc(OCc2ccccc2)cc1)NC(=O)OCc1ccccc1)Nc1n[nH]c(=S)s1 [5-(N-benzyloxycarbonyl-(O-Benzyl)tyrosyl-glycylamino)-1,3,4-thiadiazole-2-thione] | – | 0.38 | – | – |
| O=C(CNC(=O)OCc1ccccc1)NC(Cc1ccc(O)cc1)C(=O)NC(Cc1ccc(OCc2ccccc2)cc1)C(=O)NC(C(=O)Nc1n[nH]c(=S)s1)c1ccccc1 (centres unmarked) [5-(N-benzyloxycarbonyl-glycyl-tyrosyl-(O-benzyl)tyrosyl)-phenylglycylamino)-1,3,4-thiadiazole-2-thione] (Cbz-GYY(Bn)[Phg]-X1; configuration not given here) | – | 0.073 | 110 | – |
| C[C@H](NC(=O)[C@H](Cc1ccccc1)NC(=O)OCc1ccccc1)C(=O)Nc1n[nH]c(=S)s1 [5-(N-benzyloxycarbonyl-phenylalanyl-alanylamino)-1,3,4-thiadiazole-2-thione] | 3.6 | – | 1400 | – |
| O=C(N[C@@H](Cc1ccccc1)C(=O)N[C@@H](CCc1ccccc1)C(=O)Nc1n[nH]c(=S)s1)OCc1ccccc1 [5-(N-benzyloxycarbonyl-phenylalanyl-homophenylalanylamino)-1,3,4-thiadiazole-2-thione] | – | 0.95 | – | 2.9 |
| CC(C)C[C@H](NC(=O)[C@H](Cc1ccccc1)NC(=O)OCc1ccccc1)C(=O)N[C@@H](Cc1c[nH]c2ccccc12)C(=O)Nc1n[nH]c(=S)s1 [5-(N-benzyloxycarbonyl-phenylalanyl-leucyl-tryptonylamino)-1,3,4-thiadiazole-2-thione] | – | – | 246 | 1.45 |
| CC(C)(C)OC(=O)N[C@@H](Cc1ccc(OCc2ccccc2)cc1)C(=O)NC(C(=O)Nc1n[nH]c(=S)s1)c1ccccc1 (some centres unmarked) [5-(N-t-Butoxycarbonyl-(O-benzyl)tyrosyl-phenylglycineamino)-1,3,4-thiadiazole-2-thione] | 0.245 | 0.51 | – | 0.99 |
| CC(C)C[C@H](NC(=O)OC(C)(C)C)C(=O)Nc1n[nH]c(=S)s1 [5-(N-t-butoxycarbonyl-leucylamino)-1,3,4-thiadiazole-2-thione] | – | – | 10200 | – |
| CC(C)[C@H](NC(=O)[C@H](Cc1ccc([N+](=O)[O-])cc1)NC(=O)OCc1ccccc1)C(=O)Nc1n[nH]c(=S)s1 [5-(benzyloxycarbonyl-(p-nitro)phenylalanyl-valylamino)-1,3,4-thiadiazole-2-thione] | – | – | 180 | – |
